Earlier results, collected in patent US20060194234A1, “Methods for identifying small molecules that bind specific RNA structural motifs” (PTC Therapeutics, Inc., priority 2001, published 2006).

Legend:
[1] = tested on: IIB (or RRE) region of HIV RNA; conditions: appears to result from competitive binding directly to the RRE RNA structural motif
[2] = tested on: 60-mer from ribosomal RNA; conditions: literature statement in background

| block of the binding of Rev to its viral recognition element in the IIB (or RRE) region of HIV RNA [1] | binding to a 60-mer from ribosomal RNA [2] | Compound |
| --- | --- | --- |
| can block the binding |  | NC[C@@H]1O[C@H](O[C@H]2[C@@H](O)[C@H](O[C@@H]3[C@@H](O)[C@H](N)C[C@H](N)[C@H]3O[C@H]3O[C@H](CN)[C@@H](O)[C@H](O)[C@H]3N)O[C@@H]2CO)[C@H](N)[C@@H](O)[C@@H]1O [neomycin B] |
| can block the binding |  | NC[C@H]1O[C@H](O[C@H]2[C@H](O)[C@@H](O[C@H]3O[C@H](CO)[C@@H](O)[C@H](N)[C@H]3O)[C@H](N)C[C@@H]2N)[C@H](N)C[C@@H]1O [tobramycin] |
|  | binds tightly | thiostreptone |

| Compound | block of the binding of Rev to its viral recognition element in the IIB (or RRE) region of HIV RNA [1] | binding to a 60-mer from ribosomal RNA [2] |
| --- | --- | --- |
| NC[C@@H]1O[C@H](O[C@H]2[C@@H](O)[C@H](O[C@@H]3[C@@H](O)[C@H](N)C[C@H](N)[C@H]3O[C@H]3O[C@H](CO)[C@@H](O)C[C@H]3N)O[C@@H]2CO)[C@H](N)[C@@H](O)[C@@H]1O[C@H]1O[C@H](CO)[C@@H](O)[C@H](O)[C@@H]1O [lividomycin A] | can block the binding |  |
